Like-named read-outs stand apart in the source and are kept apart here.
Columns and labels:
Type in all cases: cell-based
TamR-MCF-7 = experiment: CellTiter-Glo cell proliferation inhibition, TamR-MCF-7; conditions: 144 h; TamR-MCF-7 (CTG), 6 days, starting concentration 10 μM; read-out: IH % max (maximum inhibition percentage)
Text: (§1) 1. Cell line • (1) Breast cancer cell lines and their culture media: • MCF-7 (ATCC; Cat. No.: HTB-22), a Luminal A breast cancer cell; • TamR-MCF-7 (ATCC; Cat. No.: CRL-3435), a breast cancer cell; • MCF-7 ER^D538G: a Luminal A breast cancer cell obtained by constructing MCF-7 (ATCC; Cat. No.: HTB-22) using CRISPR-Cas9 gene editing technology; • MCF-7 ER^Y537S: a Luminal A breast cancer cell obtained by constructing MCF-7 (ATCC; Cat. No.: HTB-22) using CRISPR-Cas9 gene editing technology; • MDA-MB-231: (manufacturer: Nanjing CoBioer Biosciences Co., Ltd.), a triple-negative breast cancer cell; • MDA-MB-468: (manufacturer: Nanjing CoBioer Biosciences Co., Ltd.), a triple-negative breast cancer cell.
(§2) Herein, the culture medium of MCF-7, TamR-MCF-7, MCF-7 ER^D538G, and MCF-7 ER^Y537S was EMEM; • the culture medium of MDA-MB-231 and MDA-MB-468 was DMEM.
(§3) 2. Reagents • Culture medium EMEM (Gibco, 1964507) • Culture medium DMEM (Gibco, 12430-054) • Fetal bovine serum (Gibco, 10091148) • Penicillin-streptomycin double antibody (Gibco, S110JV) • DPBS (Gibco, 14190-144) • CellTiter-Glo® assay kit (Promega, G7573) • Trypsin (0.25%) (Gibco, 25200-056) • DMSO (Sigma, D2650)
(§4) 3. Instruments • Biosafety cabinet (AIRTECH, BSC-1300A II) • Automated cell counter (Life Technologies, countess II) • Multifunctional microplate reader (Biotek, H1FM) • Orbital shaker (Hangzhou Allsheng Instruments Co., Ltd., OS-100) • XLFIT 5.3 (Inforstack Shanghai Co., Ltd.)
(§5) For this test method, the following experiments were performed in a biosafety cabinet, with the specific steps as follows: • (1) Cells were inoculated in a 96-well plate. One day later, the previous culture medium was poured off, 5 mL of DPBS was added to wash the cells, and then DPBS was pipetted and discarded. An appropriate amount of trypsin was then added. The plate was digested in a 37° C., 5% CO2 cell incubator for about 2 to 5 minutes and then taken out. Anew corresponding culture medium was added, and pipetted up and down to resuspend the cells evenly. The cells were then counted using an automated cell counter. • (2) Each cell was inoculated in columns 1 to 11 of a 96-well plate (Corning, Cat. No.: 3610) at a density of 1,000 or 2,000 cells per well in 100 μL of culture medium, and 100 μL of the corresponding culture medium without cells was added to the wells in column 12. The plate was then placed in a 37° C., 5% CO2 incubator for 24 hours. • (3) The compound of the present disclosure and the control drug fulvestrant (Selleck; Cat. No.: S1191) were then 4-fold serially diluted to 10 dose points starting at 10 μM. 10 μL of the serially diluted compound was pipetted and added to 100 μL of cells in columns 1 to 10, and 10 μL of the corresponding culture medium containing 0.33 v % DMSO was added to both columns 11 and 12. The plate was incubated in a 37° C., 5% CO2 incubator for 6 days or 72 hours (Note: column 11 was used as a MAX well with cells but without compound; column 12 was used as a MIN well without cells […]). • (4) The cell viability detection reagent in the CellTiter-Glo® assay kit was then added to the 96-well plate at 50 μL per well according to the instructions, and shaken on an orbital shaker in the dark for 5 to 10 minutes. The cell viability was then measured using a multifunctional microplate reader. Finally, the inhibition of cell proliferation by the compound of the present disclosure was plotted by XLFIT software, and the IC50 value (half inhibitory concentration) and the IH % max (maximum inhibition percentage) of the compound of the present disclosure were calculated.

MDA-MB-468 = experiment: CellTiter-Glo cell proliferation inhibition, MDA-MB-468; conditions: Homo sapiens, MDA-MB-468 (CTG), starting concentration 10 μM; for inhibition at up to 10 µM: read-out: IH % max (maximum inhibition percentage)
Text: as §1, §2, §3, §4, §5
(§6) Compounds D64 to D69 were tested for MDA-MB-231 (CTG) and MDA-MB-468 (CTG) with an incubation time of 72 hours in the incubator.

MCF-7 = experiment: CellTiter-Glo cell proliferation inhibition, MCF-7 (Effect Example 2); conditions: Homo sapiens, MCF7, 144 h; MCF-7 (CTG), 6 days, starting concentration 10 μM; read-out: IH % max (maximum inhibition percentage)
Text: as §1, §2, §3, §4, §5

MCF-7 ER^D538G = experiment: CellTiter-Glo cell proliferation inhibition, MCF-7 ER^D538G; conditions: Homo sapiens, MCF7, 144 h, MCF-7 ER^D538G (CTG), 6 days, starting concentration 10 μM; for inhibition at up to 10 µM: read-out: IH % max (maximum inhibition percentage)
Text: as §1, §2, §3, §4, §5

MCF-7 ER^Y537S = experiment: CellTiter-Glo cell proliferation inhibition, MCF-7 ER^Y537S; conditions: Homo sapiens, MCF7, 144 h; MCF-7 ER^Y537S (CTG), 6 days, starting concentration 10 μM; read-out: IH % max (maximum inhibition percentage)
Text: as §1, §2, §3, §4, §5

MDA-MB-231 = experiment: CellTiter-Glo cell proliferation inhibition, MDA-MB-231; conditions: Homo sapiens, MDA-MB-231 (CTG), starting concentration 10 μM; for inhibition at up to 10 µM: read-out: IH % max (maximum inhibition percentage)
Text: as §1, §2, §3, §4, §5, §6

[1] = incubation time 72 hours (D64 to D69)

Structure (SMILES) | inhibition at up to 10 µM (TamR-MCF-7) [%] | inhibition at up to 10 µM (MDA-MB-468; 144 h, 6 days) [%] | inhibition at up to 10 µM (MCF-7) [%] | inhibition at up to 10 µM (MCF-7 ER^D538G) [%] | inhibition at up to 10 µM (MCF-7 ER^Y537S) [%] | inhibition at up to 10 µM (MDA-MB-231; 144 h, 6 days) [%] | IC50 (MCF-7 ER^D538G) [nM] | IC50 (MDA-MB-231; [1]) [nM] | inhibition at up to 10 µM (MDA-MB-231; [1]) [%] | IC50 (MDA-MB-468; [1]) [nM] | inhibition at up to 10 µM (MDA-MB-468; [1]) [%]
CCN(CCOc1ccc(Oc2c(-c3ccc(S(C)(=O)=O)cc3)ccc3cc(O)ccc23)cc1)CC(=O)N1CCN(c2ccc3c(c2)CN(C2CCC(=O)NC2=O)C3=O)CC1 (stereo not shown) [Compound D7, 3-(5-(4-(N-ethyl-N-(2-(4-((6-hydroxy-2-(4-(methylsulfonyl)phenyl)naphthalen-1-yl)oxy)phenoxy)ethyl)glycyl)piperazin-1-yl)-1-oxoisoindolin-2-yl)piperidine-2,6-dione] | 47 | 63 | 49 | 40 | 60 |  |  |  |  |  | 
CS(=O)(=O)c1ccc(-c2ccc3cc(O)ccc3c2Oc2ccc(N3CCN(CC(=O)N4CCN(c5ccc6c(c5)CN(C5CCC(=O)NC5=O)C6=O)CC4)CC3)cc2)cc1 (stereo not shown) [Compound D12, 3-(5-(4-(2-(4-(4-((6-hydroxy-2-(4-(methylsulfonyl)phenyl)naphthalen-1-yl)oxy)phenyl)piperazin-1-yl)acetyl)piperazin-1-yl)-1-oxoisoindolin-2-yl)piperidine-2,6-dione] |  |  | 45 | 68 |  | 37 | 761 |  |  |  | 
CCN(CCOCCOCCNc1cccc2c1CN(C1CCC(=O)NC1=O)C2=O)CCOc1ccc(Oc2c(-c3ccc(S(C)(=O)=O)cc3)ccc3cc(O)ccc23)cc1 (stereo not shown) [Compound D26, 3-(4-((2-(2-(2-(ethyl(2-(4-((6-hydroxy-2-(4-(methylsulfonyl)phenyl)naphthalen-1-yl)oxy)phenoxy)ethyl)amino)ethoxy)ethoxy)ethyl)amino)-1-oxoisoindolin-2-yl)piperidine-2,6-dione] | 35 | 37 | 55 | 75 | 43 |  |  |  |  |  | 
CCN(CCOCCOCCOCCNc1cccc2c1C(=O)N(C1CCC(=O)NC1=O)C2=O)CCOc1ccc(Oc2c(-c3ccc(S(C)(=O)=O)cc3)ccc3cc(O)ccc23)cc1 (stereo not shown) [Compound D39, 2-(2,6-dioxopiperidin-3-yl)-4-((3-ethyl-1-(4-((6-hydroxy-2-(4-(methylsulfonyl)phenyl)naphthalen-1-yl)oxy)phenoxy)-6,9,12-trioxa-3-azatetradecan-14-yl)amino)isoindoline-1,3-dione] | 32 | 51 | 35 | 73 | 48 |  | 158 |  |  |  | 
CCN(CCOCCOCCN1CCN(c2cccc3c2CN(C2CCC(=O)NC2=O)C3=O)CC1)CCOc1ccc(Oc2c(-c3ccc(S(C)(=O)=O)cc3)ccc3cc(O)ccc23)cc1 (stereo not shown) [Compound D40] | 31 | 71 | 34 | 72 | 61 |  |  |  |  |  | 
CNC(=O)c1ccc(-c2ccc3cc(O)ccc3c2Oc2ccc(OCCN3CCN(c4ccc5c(c4)CN(C4CCC(=O)NC4=O)C5=O)CC3)cc2)cc1 (stereo not shown) [Compound D64, 4-(1-(4-(2-(4-(2-(2,6-dioxopiperidin-3-yl)-1-oxoisoindolin-5-yl)piperazin-1-yl)ethoxy)phenoxy)-6-hydroxynaphthalen-2-yl)-N-methylbenzamide] |  |  |  |  |  |  |  | 9.8 | 79.8 | 19.3 | 87
O=C1CCC(N2Cc3cc(N4CCN(CCOc5ccc(Oc6c(-c7ccc(C(=O)N8CCCC8)cc7)ccc7cc(O)ccc67)cc5)CC4)ccc3C2=O)C(=O)N1 (stereo not shown) [Compound D65, 3-(5-(4-(2-(4-((6-hydroxy-2-(4-(pyrrolidine-1-carbonyl)phenyl)naphthalen-1-yl)oxy)phenoxy)ethyl)piperazin-1-yl)-1-oxoisoindolin-2-yl)piperidine-2,6-dione] |  |  |  |  |  |  |  | 3.6 | 83.6 | 29 | 83.6
CS(=O)(=O)c1ccc(-c2ccc3ccccc3c2Oc2ccc(OC(=O)N3CCN(c4ccc5c(c4)CN(C4CCC(=O)NC4=O)C5=O)CC3)cc2)cc1 (stereo not shown) [Compound D66, 4-((2-(4-(methylsulfonyl)phenyl)naphthalen-1-yl)oxy)phenyl 4-(2-(2,6-dioxopiperidin-3-yl)-1-oxoisoindolin-5-yl)piperazine-1-carboxylate] |  |  |  |  |  |  |  | 1.4 | 85.4 | 2.2 | 90.6
CN(C)C(=O)c1ccc(-c2ccc3ccccc3c2Oc2ccc(OC(=O)N3CCN(c4ccc5c(c4)CN(C4CCC(=O)NC4=O)C5=O)CC3)cc2)cc1 (stereo not shown) [Compound D67, 4-((2-(4-(dimethylcarbamoyl)phenyl)naphthalen-1-yl)oxy)phenyl 4-(2-(2,6-dioxopiperidin-3-yl)-1-oxoisoindolin-5-yl)piperazine-1-carboxylate] |  |  |  |  |  |  |  | 3.7 | 79.2 | 4.4 | 83.6
CN(C)C(=O)c1ccc(-c2ccc3ccccc3c2Oc2ccc(OCCN3CCN(c4ccc5c(c4)CN(C4CCC(=O)NC4=O)C5=O)CC3)cc2)cc1 (stereo not shown) [Compound D68, 4-(1-(4-(2-(4-(2-(2,6-dioxopiperidin-3-yl)-1-oxoisoindolin-5-yl)piperazin-1-yl)ethoxy)phenoxy)naphthalen-2-yl)-N,N-dimethylbenzamide] |  |  |  |  |  |  |  | 44.2 | 71.5 | 35.4 | 59.3
CNC(=O)c1ccc(-c2ccc3ccccc3c2Oc2ccc(OC(=O)N3CCN(c4ccc5c(c4)CN(C4CCC(=O)NC4=O)C5=O)CC3)cc2)cc1 (stereo not shown) [Compound D69, 4-((2-(4-(methylcarbamoyl)phenyl)naphthalen-1-yl)oxy)phenyl 4-(2-(2,6-dioxopiperidin-3-yl)-1-oxoisoindolin-5-yl)piperazine-1-carboxylate] |  |  |  |  |  |  |  | 2.2 | 91.7 | 2.7 | 92.8
